Assay results as given in US9546367B2, “siRNA compositions and methods for inhibiting gene expression in tumor initiating cells of breast cancer” (priority 2011, dated 2017).

Key:
[1] = tested on: BCM-2665A human primary tumor; test: docetaxel treatment of BCM-2665A xenograft, tumor growth and ALDF staining; format: in vivo, SCID/Beige mice
Protocol: SCID/Beige mice were inoculated with BCM-2665A human primary tumor tissues. After tumors reached 1 cm^3 in size, the tumor mice were treated with 20 mg/kg docetaxel. […] The residual tumor tissues were collected at the end of the experiment, treated with collagenase, and single cells were stained with Aldefluor® reagent (ALDF). Positive staining by ALDF is one of the characteristic markers for TIC. The percentage of ALDF-positive cells was higher in the docetaxel-treated tumor, than in the control samples.

SUM159 [2] = test: high-throughput lentiviral shRNA mammosphere formation (MSFE) screen; format: cell-based, human; settings: positive control; for mammosphere forming efficiency: increasing concentration, SUM159 cells
BT549 [3] = test: as above; format: cell-based, human; settings: Z-score of mammosphere formation vs plate mean, one shRNA per well, 2000 cells/well, 8 biological replicates
Protocol: (§1) In previously published results, the inventors described a breast cancer stem cell signature that comprised a set of 493 statistically significant, differentially expressed genes that were present in a tumorigenic subpopulation of breast cancer cells (Creighton et al. 2009). The biological confirmation of the significance of these differentially expressed genes was conducted using a shRNA-based gene knockdown approach, correlating the selective knockdown of target genes with mammosphere formation efficacy (MSFE), an in vitro assay for self-renewal. A library of shRNAs which targets the entire human genome (Open Biosystems, Boston, Mass., USA) was used to create a sub-library of shRNAs against the 493 differentially expressed genes in the tumorigenic signature. A total of 1124 shRNAs (˜2-3 shRNA per gene), and appropriate control shRNAs that were encoded in the pGIPZ vector with a green fluorescent protein tag were selected and arrayed on 13×96-well microtiter plates.
(§2) These shRNAs were packaged into lentiviral particles using a second-generation lentiviral packaging system (Addgene, Cambridge, Mass., USA) in 293T cells plated on 96-well plates. The supernatant was then harvested for transduction and expression in a wide range of cell types. Specifically, lentiviruses were collected 3 days after transfection, frozen at −80° C. immediately, and then thawed for transducing two different breast cancer cell lines SUM159PT (American Type Culture Collection; Manassas, Va., USA) and BT549 (ATCC) with 8 biological replicates. Cells were plated in 13×96-well ultra-low attachment plates, at 2000 cells/well, with one shRNA being transduced per well using the Biomek 3000 automated workstation (Beckman Coulter; Brea, Calif. USA), in order to ensure reproducibility and accuracy.
(§3) The lentiviral transduction rate (˜80-90%) in these cell lines was evaluated by fluorescence microscopy using the GFP tag in the pGIPZ vector. MSFE was then assessed in a high throughput screening approach of all 493 genes.
(§4) For shRNA knockdown studies, the mean and the standard deviation from all measurements of each plate for each replicated experiment were estimated. The Z-score was calculated by subtracting the mean of the plate values and dividing this difference by the standard deviation. […] For tumor volume fold-change comparisons, one-way Anova was used to compare different treatment groups. This was followed by Tukey analysis for a pairwise comparison of different treatment groups. For the tumor recurrence studies, events were defined as first appearance of tumor >50 mm^3 after completion of treatment. Time to recurrence was derived by Kaplan-Meier method, with differences compared using the generalized Mann-Whitney-Wilcoxon rank-sum test.
(§5) Previously, a breast cancer stem cell signature was identified comprising 493 statistically significant differentially expressed genes (Creighton et al., 2009). The biological significance of this gene set was confirmed by conducting shRNA-based gene knockdown, and correlating the selective knockdown of target genes using mammosphere-forming efficiency (MSFE), an in vitro assay for self-renewal. As described in the previous examples, a library of shRNAs targeting the entire human genome (Open Biosystems, MA, USA) was used to create a sub-library of shRNAs against the differentially expressed genes in the tumorigenic signature. Using these genes along with appropriate control shRNAs, a total of 1124 shRNAs (˜2-3 shRNA per gene) were tagged with green fluorescent protein, and encoded in pGIPZ vector, and then arrayed on to 13×96-well plates. These shRNAs were packaged into lentiviral particles using a second-generation lentiviral packaging system (Thermo-Fischer, USA) in 293T cells plated in 96-well plates. The supernatant was then harvested for transduction and expression in a wide range of cell types. […]

SUM159 [4] = test: as above; format: cell-based, human; settings: Z-score of mammosphere formation vs plate mean, one shRNA per well, 2000 cells/well, 8 biological replicates
Protocol: as §1, §2, §3, §4, §5

BT549 [5] = test: in vitro MSFE with nanoliposome/silicon particle packaged siRNA; format: cell-based, human; settings: BT549
Protocol: “Claudin-low”-like human breast cancer cell lines (SUM159 and BT549) were plated in 24-well ultralow attachment plates with mammary epithelial growth medium (MEGM) (5,000 cells/well). Both cell lines were then treated with 1 μg/well/6 wells of silicon particles loaded with DOPC nanoliposomes/siRNA. The primary MSs were allowed to grow for 3 days. MFs were counted on Day 3 with a GelCount colony counter (Oxford Optronix, Oxford, UK). Mammosphere-Forming Efficiency (MSFE) was calculated by dividing the number of MSs by the number of seeded cells. In addition, established MSs were serially passaged by dissociation, and single cells were re-plated on fresh 24-well, ultra-low-attachment plates to form secondary mammospheres, which were counted after 3 days. One-way ANOVA and Tukey tests were performed. A p-value of less than 0.05 was considered significant.
To develop a more clinically relevant model, two of the identified candidates (MLF2 and RPL39L) were compared to Stat3 (positive control), and their siRNA sequences identified within the shRNA vector. These siRNAs were then packaged in nanoliposomes and tested for MSFE using the same protocol as above, except for the addition of packaged siRNA instead of lentiviral shRNA. (N.B. wherein shRNA requires a promoter and needs to be transcribed in order to function, siRNA functions by itself once incorporated into recipient cells).
To develop siRNA nanotherapeutics targeting TIC, studies have been conducted to confirm the essential roles of the candidate TIC genes. Exemplary siRNA oligonucleotides specific for STAT3, MFL2, and RPL39L were formulated into nanoliposomes, which were then loaded into porous silicon MSV particles. For in vitro assay, BT549 and SUM159 cells were incubated with MSV/siRNA, and primary and secondary MSFE was measured. […] For in vivo assessment, SCID/Beige mice were inoculated with SUM159 tumor, and treated with MDS/siRNA delivered by tail vein injection. Cells were then isolated from tumor mice 3 weeks later, and MSFE was measured. […] These studies indicate that 1) MDS/siRNA could successfully be delivered to tumor tissues effectively in vivo, 2) uptake of MDS/siRNA by TIC was efficient, and 3) MFL2 and RPL39L were essential genes for TIC.
The siRNA sequences of two candidate genes RPL39 and MLF2 were packaged in nanoliposomes and the effects on MSFE determined in vitro, as described above, using packaged siRNA instead of lentiviral shRNA.

MDAMB231 lung metastasis = test: in vivo lung metastasis of luciferase-tagged MDAMB231, IVIS imaging; design: species or system SCID-beige mice; settings: siRNA in cationic liposomes twice weekly, week six
Protocol: 3 million cells MDAMB231 cancer cells, stably transfected with luciferase, were injected in the mammary fat pad of SCID-beige mice and were randomized into 3 groups: (1) vehicle+scrambled siRNA, (2) vehicle+MLF2 siRNA, and (3) vehicle+RPL39 siRNA, and treated with siRNA packaged liposomes twice weekly for 6 weeks. The mice were injected with D-luciferin every week for 6 weeks to determine lung metastases using IVIS imaging (Perkin Elmer). The primary tumors were removed by week 5 to continue this study without increasing the primary tumor burden to 10% of body weight.
To assess the effects of RPL39 and MLF2 siRNA on lung metastasis, SCID-Beige mice were injected with luciferase-tagged MDAMB231 cells and treated with siRNA against RPL39 or MLF2 packaged in cationic liposomes, twice weekly simultaneously, and then sacrificed at week six.

## CC(=O)O[C@@]12CO[C@@H]1C[C@H](O)[C@@]1(C)C(=O)[C@H](O)C3=C(C)[C@@H](OC(=O)[C@H](O)[C@@H](NC(=O)OC(C)(C)C)c4ccccc4)C[C@@](O)([C@@H](OC(=O)c4ccccc4)[C@H]21)C3(C)C [docetaxel]
[1]; 20 mg/kg docetaxel, next 14 days
  tumor growth: Significant inhibition
[1]; residual tumor after 20 mg/kg docetaxel, vs control samples
  percentage of ALDF-positive cells: higher

## O=S1(=O)N[C@@]2(CN1CC(F)(F)F)[C@@H]1CC[C@H]2Cc2ccc(/C=C/CN3CCC(C(F)(F)F)CC3)cc2C1 [MRK-003]
SUM159 [2]; 10 μM concentration
  MS formation: dramatically reduced
SUM159 [2]
  mammosphere forming efficiency: dose-dependent decrease
SUM159 [2]; listed as notch inhibitor
  mammosphere forming efficiency: inhibiting MS formation
BT549 [3]; listed as AA_GSI_pos1_1
  BT 549 Z-score: −0.731
BT549 [3]; listed as AA_GSI_pos1_6
  BT 549 Z-score: −0.688
BT549 [3]; listed as AA_GSI_pos1_8
  BT 549 Z-score: −0.519
BT549 [3]; listed as AA_GSI_pos1_10
  BT 549 Z-score: −0.719
BT549 [3]; listed as AA_GSI_pos1_11
  BT 549 Z-score: −0.675
BT549 [3]; listed as AA_GSI_pos2_5
  BT 549 Z-score: −0.463
BT549 [3]; listed as AA_GSI_pos2_8
  BT 549 Z-score: −0.894
BT549 [3]; listed as AA_GSI_pos2_10
  BT 549 Z-score: −0.685
BT549 [3]; listed as AA_GSI_pos2_13
  BT 549 Z-score: −0.397
SUM159 [4]; listed as AA_GSI_pos1_1
  SUM 159 Z-score: −2.026
SUM159 [4]; listed as AA_GSI_pos1_6
  SUM 159 Z-score: −1.904
SUM159 [4]; listed as AA_GSI_pos1_8
  SUM 159 Z-score: −1.850
SUM159 [4]; listed as AA_GSI_pos1_10
  SUM 159 Z-score: −1.697
SUM159 [4]; listed as AA_GSI_pos1_11
  SUM 159 Z-score: −2.078
SUM159 [4]; listed as AA_GSI_pos2_5
  SUM 159 Z-score: −1.923
SUM159 [4]; listed as AA_GSI_pos2_8
  SUM 159 Z-score: −1.971
SUM159 [4]; listed as AA_GSI_pos2_10
  SUM 159 Z-score: −2.139
SUM159 [4]; listed as AA_GSI_pos2_13
  SUM 159 Z-score: −1.857

## scrambled siRNA: control siRNA; sense SEQ ID NO: 1 ATCTCGCTTGGGCGAGAGTAAG, antisense SEQ ID NO: 17 CTTACTCTCGCCCAAGCGAGAG (listed as DNA, chemistry not given here) [reference compound]
BT549 [5]; 1 μg/well silicon particles loaded with DOPC nanoliposomes/siRNA, counted Day 3
  MSFE, primary MSs: 2.4%
BT549 [5]; silicon particles loaded with DOPC nanoliposomes/siRNA, re-plated, counted after 3 days
  MSFE, secondary MSs: 1%
MDAMB231 lung metastasis
  lung metastasis (animals with metastasis / animals), IVIS imaging: 12/12
